Test results from patent US12318393B2, “Modulators of orphan nuclear receptors for NASH and other metabolic disorders” (Emory University, priority 2018, dated 2025).

Legend:
[1] = system: Sgp130FC mice; assay: Liver triglycerides and lipid accumulation in Sgp130FC mice (NASH model); type: in vivo
Protocol: Sgp130FC mice specifically blocks IL-6 trans-signaling without affecting classic IL-6 signaling. […] Nine-month-old Sgp130FC mice were injected i.p. with Compound 1 (7.5 mg/kg) or vehicle control twice a week for four weeks (total of 8 injections). The mice were sacrificed after 4 weeks, triglyceride levels were measured from liver and skeletal muscle and hepatic lipid accumulation was visualized using H&E staining.
Compound 1 and AntagomiR injections to mice. C57BL/6 male mice, 7-8 weeks old, or Sgp130FC, 9-month-old male mice, were injected i.p. with 7.5 mg/kg Compound 1 dissolved in saline and 3% DMSO. Saline was injected as control. Mice were hydrodynamic tail vain injected with antagomiR-122 or antagomiR-control (negative control) (5 μg/mouse in 1.5 ml saline). Mice were sacrificed according to the legend of the figure describing the experimental results and the livers, white adipose and skeletal muscle tissues were frozen in liquid nitrogen or in OCT embedded frozen blocks, for further RNA and histologic analysis. AntagomiRs were obtained from Sigma Aldrich, see Table 3.
Triglycerides and β-hydroxybutyrate quantification. To determine the liver and muscle lipid content, muscle and liver tissues (40-80 mg) were homogenized in 0.5 ml of chloroform: Tris solution (v/v, 1:1), the homogenate was transferred to 1 ml of chloroform: methanol solution (v/v, 2:1) centrifuged at 3000 rpm for 10 min. The organic phase was mixed with 5% Triton X100 in chloroform, dried and re-dissolved in water. After lipid extraction, TG concentration in samples was measured with Triglyceride Quantification Kit (BioVision), according to the manufactures instructions. β-hydroxybutyrate was determined utilizing commercial colorimetric kits (BioVision) directly from plasma samples.

[2] = Cellular toxicity assay in CEM cells; type: cell-based; conditions: human, CEM (human lymphoblastoid) cells, read-out: Cytotoxicity (IC50, μM) CEM
Protocol: (§1) The toxicity of the compounds was assessed in human PBM, CEM (human lymphoblastoid), and Huh-7 cells, as described previously (see Schinazi R. F., Sommadossi J.-P., Saalmann V., Cannon D. L., Xie M.-Y., Hart G. C., Smith G. A. & Hahn E. F. Antimicrob. Agents Chemother. 1990, 34, 1061-67). Cycloheximide was included as positive cytotoxic control, and untreated cells exposed to solvent were included as negative controls. The cytotoxicity IC50 was obtained from the concentration-response curve using the median effective method described previously (see Chou T.-C. & Talalay P. Adv. Enzyme Regul. 1984, 22, 27-55; Belen'kii M. S. & Schinazi R. F. Antiviral Res. 1994, 25, 1-11).

[3] = system: CD4+ Th17 cells; assay: Modulation of Th17 populations in human PBMCs (flow cytometry); type: cell-based; conditions: 10 μM, 3 day assay
Protocol: Human peripheral blood mononuclear cells (PBMCs) were isolated from four healthy donors. Four experiments were conducted and analyzed by flow cytometry over 3 day assay. The control group had no drug treatment, a second were treated with 10 μM Compound 1, a third group was stimulated with PHA/IL-2 without treatment, and the fourth group was stimulated with PHA/IL-2 and incubated with 10 μM Compound 1. […] Further, Compound 1 has no effect on Th17 populations in the absence of PHA/IL-2 stimulation.

[4] = Cellular toxicity assay in Huh-7 cells; type: cell-based; conditions: human, read-out: Cytotoxicity (IC50, μM) Huh-7
Protocol: as §1

[5] = system: C57BL/6 mice fed with HFD; assay: Multi-parameter metabolic assessment (metabolic cages) in HFD-fed C57BL/6 mice; type: in vivo; conditions: 15 mg/kg 3 times a week, after 2 weeks, 24 hr period, vs saline
Protocol: Metabolic and activity profiles of the mice were measured, by using the Promethion High-Definition Behavioral Phenotyping System (Sable Instruments, Inc., Las Vegas, NV, USA), which is a multi-parameter assessment incorporating sub-systems for open-circuit indirect calorimetry, feeding, water intake, activity, running wheel and body mass measurements in a conventional live-in home cage that minimizes stress. Data acquisition and instrument control were performed using the MetaScreen software version 2.2.18.0, and the obtained raw data were processed using ExpeData version 1.8.4 using an analysis script detailing all aspects of data transformation. […] Respiratory gases were measured by using the GA-3 gas analyzer (Sable Systems Inc., Las Vegas, NV, USA) using a pull-mode, negative-pressure system. Air flow was measured and controlled by the FR-8 (Sable Systems Inc., Las Vegas, NV, USA), with a set flow rate of 2000 mL/min. Water vapor was continuously measured and its dilution effect on 02 and CO2 were mathematically compensated. Effective mass was calculated by ANCOVA analysis. Respiratory quotient (RQ) was calculated as the ratio of VCO2/VO2. Total energy expenditure (TEE) was calculated as VO2×(3.815+1.232×RQ), normalized to effective body mass, and expressed as kcal/h/kgeff.Mass. […]

[6] = 7.5 mg/kg i.p. twice/week, four weeks

O=C1Nc2cc(C(=O)N3CCC(Cc4ccccc4)CC3)ccc2Nc2ccccc21 [Compound 1]
hepatic lipid accumulation and droplet formation (H&E staining) ([1]; 7.5 mg/kg i.p. twice a week for four weeks): markedly reduces
reduction of liver triglyceride levels ([1]; 7.5 mg/kg i.p. twice a week for four weeks, vs saline): approximately 3 fold
MicroRNA-18 plasma and liver levels (negative control) [1, 6]: not affected
liver and muscle triglyceride levels [1, 6]: reduces
miR-122 expression (plasma, liver) [1, 6]: increases
IC50 [2]: 11 µM
total viability of CD4+ T cells ([3]; even under PHA/IL-2 stimulation): no effect
Th17 total population, presence of PHA/IL-2 stimulation ([3]; relative to vehicle-control): decreases
Th17 populations, absence of PHA/IL-2 stimulation ([3]; unstimulated): no effect
IC50 [4]: 10.4 µM
fat oxidation [5]: increased
total energy expenditure (TEE) [5]: increased
